The assay addresses T1, 1-deoxy-D-xylulose 5-phosphate synthase (DXPS) (Escherichia coli, UniProt P77488).
T1 sequence (P77488 2-620): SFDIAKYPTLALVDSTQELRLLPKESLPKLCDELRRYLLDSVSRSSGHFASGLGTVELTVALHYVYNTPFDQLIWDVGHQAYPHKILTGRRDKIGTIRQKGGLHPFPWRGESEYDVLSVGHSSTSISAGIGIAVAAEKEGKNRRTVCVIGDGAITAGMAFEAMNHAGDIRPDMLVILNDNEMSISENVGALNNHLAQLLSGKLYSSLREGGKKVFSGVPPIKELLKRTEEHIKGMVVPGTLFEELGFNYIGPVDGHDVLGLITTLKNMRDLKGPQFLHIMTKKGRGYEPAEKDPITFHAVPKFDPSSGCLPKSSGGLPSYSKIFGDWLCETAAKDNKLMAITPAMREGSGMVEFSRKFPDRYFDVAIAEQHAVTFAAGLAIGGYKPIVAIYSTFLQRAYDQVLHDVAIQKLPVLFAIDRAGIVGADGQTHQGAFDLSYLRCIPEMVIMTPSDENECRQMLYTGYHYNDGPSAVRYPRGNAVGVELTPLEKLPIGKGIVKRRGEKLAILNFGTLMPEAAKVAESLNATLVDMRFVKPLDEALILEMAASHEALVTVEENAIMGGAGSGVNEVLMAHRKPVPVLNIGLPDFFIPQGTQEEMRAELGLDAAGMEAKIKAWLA
The assay is described as follows: CD titration of the ThDP-bound pre-decarboxylation intermediate, anaerobic. It is filed as binding.

SMILES strings stand for the structures.

The term Kd denotes the equilibrium constant for the complex coming apart. The low end stands for tighter binding, the high end for weaker binding.

On to `CCC(=O)C(=O)O` [compound 2, ketobutyrate], for which binding was put at a Kd of 16 ± 9 µM.
